Measured values: US20120134946A1, “COMPOSITION HAVING ANTIOXIDANT AND WHITENING EFFECTS CONTAINING A CONCENTRATE OF KOREAN RICE WINE” (AMOREPACIFIC CORPORATION, priority 2009, published 2012)

Key:
[1] = tested on: human skin; test: Whitening effect for human skin (UVB-induced tanning); format: in vivo; settings: 1% topical on UVB-tanned upper arm, 10 weeks, 12 healthy men, colorimeter
Description: The whitening effect of the concentrated makgeolli of Example 1 for human skin was tested as follows.
12 healthy men were used as test subjects. An opaque tape with a hole of 1.5 cm diameter was attached on the upper arm of the test subject and UVB of about 1.5-2 times the minimal erythemal dose was irradiated to induce tanning.
After the UV radiation, 1% concentrated makgeolli of Example 1 (in 7:3 1,3-butylene glycol:ethanol solvent), 1% hydroquinone or 1% solvent (vehicle, negative control) was applied. […] The skin color was measured every week using the colorimeter CR2002 (Minolta, Japan).
The difference in skin color (ΔL*) at the initiation of application and after the completion of test was calculated according to Equation 2. Whitening effect was determined from the ΔL* of the sample-applied portion and the control portion. A ΔL* value of about 2 can be evaluated as distinct whitening effect and one of about 1.5 can be evaluated as positive whitening effect.
ΔL*=L*after the completion of test−L*at the initiation of application Equation 2

[2] = tested on: Mouse melanocytes (Mel-Ab cells); test: Melanin production inhibiting effect using mouse melanocytes; format: cell-based; settings: 10 ppm, 3 consecutive days, absorbance at 400 nm
Description: Mouse melanocytes (Mel-Ab cells) derived from C57BL/6 mouse (Dooley, T. P. et al, Skin Pharmacol., 7, pp. 188-200) were cultured under the condition of 37° C. and 5% CO2 in DMEM containing 10% FBS, 100 nM 2-O-tetradecanoyphorbol-13-acetate and 1 nM cholera toxin. The cultured Mel-Ab cells were detached with 0.25% trypsin-EDTA and cultured in a 24-well plate, with 10^5 cells/well. From day 2, hydroquinone or the concentrated makgeolli of Example 1 (10 ppm each) was added for 3 consecutive days as test sample. Hydroquinone was used as positive control. Subsequently, after removing the medium and washing with PBS, the cells were suspended in 1 N sodium hydroxide and absorbance was measured at 400 nm. Based on the measurement result, melanin production inhibiting effect was calculated according to Equation 1.
Melanin production inhibiting effect (%)=100−(Absorbance of test sample/Absorbance of control×100) Equation 1

[3] = tested on: Human keratinocyte HaCaT cell line; test: ROS production inhibiting effect using fluorescent substances (DCFH-DA, UVB); format: cell-based; settings: light or radiation study, HaCaT cells, UVB 30 mJ/cm^2, DCF fluorescence, read-out: ROS production inhibiting effect (% of control)
Description: Human keratinocyte HaCaT cell line was used. The cells were seeded on a 96-well black plate for fluorescence measurement, with 2.0×10^4 cells per well, cultured under the condition of 37° C. and 5% CO2 for 1 day using Dulbecco's modified Eagle's medium (DMEM, FBS 10%) containing penicillin/streptomycin, and then treated with the test sample. The cells were cultured under the condition of 37°C. and 5% CO2 for 1 day using serum (FBS)-free DMEM containing penicillin/streptomycin treated with the test sample as described in Table 2. After culturing for 24 hours, after washing with HEPES-buffered control salt solution (HCSS) to remove the remaining medium and adding 20 μM 2′,7′-dichlorodihydro-fluorescein diacetate (DCFH-DA, Molecular Probes, Inc., 100 μL), the cells were cultured under the condition of 37° C. and 5% CO2 for 20 minutes and then washed with HCSS. Then, after adding HCSS (100 μL) treated with the samples of different concentrations, the fluorescence intensity of the ROS, oxidized dichlorofluorescein (DCF), was measured using a fluorescence plate reader (Ex=485 nm, Em=530 nm). Then, after immediately and 3 hours after irradiation of UVB (30 mJ/cm^2), fluorescence intensity was measured using the fluorescence plate reader (Ex=485 nm, Em=530 nm). Trolox was used as control.

[4] = Antioxidant effect (DPPH test); format: biochemical; settings: 100 μM DPPH, 37° C., 30 minutes, absorbance at 540 nm
Description: The antioxidant effect was determined as the concentration at which absorbance is decreased to 50% of control (IC50). 100 μM DPPH solution (in ethanol, 190 μL) was mixed with the concentrated makgeolli prepared in Example 1 or control (10 μL each). The resulting mixture was kept at 37° C. for 30 minutes and absorbance was measured at 540 nm. Trolox, which is widely used as synthetic antioxidant, was used as the control.

Row | SMILES | Change in skin color (ΔL*) [1] | Melanin production inhibiting effect (%) [2] [%] | activity at 1 ppm ([3]; 1 ppm) [%] | activity at 10 ppm ([3]; 10 ppm) [%] | activity at 25 ppm ([3]; 25 ppm) [%] | activity at 50 ppm ([3]; 50 ppm) [%] | IC50 (concentration at which absorbance is decreased to 50% of control) [4] [ppm]
1 | Oc1ccc(O)cc1 [Hydroquinone] | 1.90 ± 0.11 | 41.1 | – | – | – | – | –
2 | Cc1c(C)c2c(c(C)c1O)CCC(C)(C(=O)O)O2 (stereo not shown) [Trolox] | – | – | 76.9 | 74.6 | 73.3 | 58.5 | 8.64
